Test results reported in patent US20090130035A1, “STABILIZED PREPARATIONS COMPRISING PHENOLIC COMPOUNDS AND BENZOPHENONES” (SYMRISE GmbH & Co. KG, priority 2006, published 2009).

What was measured:
Assay type in all cases: physicochemical
[1] = Irradiation (24 h UV test, Ultra-Vitalux W300) of oil phase solutions, chromametric b* values; conditions: for b* value: after irradiation
Method: In order to examine to what extent the stability of the compound of the formula (IA) can be increased by predissolution in an oil phase to which an oil-soluble photoprotective filter of the formula (II) is added, irradiation experiments were conducted. The oil phase used was 2-ethylhexyl isononanoate (INCI: Ethylhexyl isononanoate). The amount of 4-(1-phenylethyl)-1,3-dihydroxybenzene (formula (IA) was in this case in a range from 10% to 20% by weight, based on the amount of oil phase. The amount of the photoprotective filter added for colour stabilization, 2-hydroxy-4-methoxybenzophenone (INCI: Benzophenone-3, formula (IIC)), was in each case 1% by weight. In order to examine to what extent the addition of a photoprotective filter of the formula (II) is advantageous, all of the samples were irradiated for 24 hours with light (light source: Ultra-Vitalux W300). For the measurement of any colour changes that occurred, all of the samples were subjected to chromametry both before and after irradiation to determine the b* values, which represent a measure of the shift in the blue-yellow axis and so give a direct indication of a yellow discoloration occurring.

[2] = pH series: aqueous-ethanolic solutions stored in the dark for 28 days, chromametric b* values; conditions: after 28 days, without disodium EDTA
Method: In order to examine to what extent the degradation and the associated yellow to brown discoloration of 4-(1-phenylethyl)-1,3-dihydroxybenzene (CARN: 85-27-8; formula (IA)) in cosmetic and pharmaceutical formulations is also influenced by the pH value of the preparation, serial pH experiments were conducted, by dissolving 4-(1-phenylethyl)-1,3-dihydroxybenzene (CARN: 85-27-8; formula (IA)) in aqueous/ethanolic solutions which had been adjusted to different pH values (pH 4, 5, 7 and 9, Table 2) using buffer solutions. The amount of 4-(1-phenylethyl)-1,3-dihydroxybenzene (CARN: 85-27-8; formula (IA)) was in each case 0.5 percent by weight. All of the samples were stored in the dark for 28 days at room temperature. In order to measure any colour changes occurring, all samples were subjected to chromametric determination, both at the beginning of the experiment and at the end of a storage time of 28 days, of the b* values, which represent a measure of the shift in the blue-yellow axis and therefore give a direct indication of any yellow discoloration occurring.

[3] = pH series with disodium EDTA: aqueous-ethanolic solutions stored in the dark for 28 days, chromametric b* values; conditions: after 28 days
Source text: The amount of 4-(1-phenylethyl)-1,3-dihydroxybenzene (CARN: 85-27-8; formula (IA)) was again in each case 0.5 percent by weight. The samples were likewise stored in the dark at room temperature for 28 days.

## CC(c1ccccc1)c1ccc(O)cc1O (stereo not shown) [4-(1-phenylethyl)-1,3-dihydroxybenzene]
[1]; reference specimen not stabilized with benzophenone-3
  b* value: 34.0
[1]; solution with 10 percent by weight, plus 1 percent benzophenone-3
  b* value: 10.3
[1]; solution with 15 percent by weight, plus 1 percent benzophenone-3
  b* value: 15.5
[1]; solution with 20 percent by weight, plus 1 percent benzophenone-3
  b* value: 10.6
[1]; light source Ultra-Vitalux W300, yellowish to brownish discoloration
  stability of solutions on irradiation with light: a certain instability
[2]; pH 4, 0.5% solution
  b* value: 2.0
[2]; pH 5, 0.5% solution
  b* value: 4.6
[2]; pH 7, 0.5% solution
  b* value: 19.4
[2]; pH 9, 0.5% solution
  b* value: 55.3
[3]; pH 4, 0.5% solution
  b* value: 1.5
[3]; pH 5, 0.5% solution
  b* value: 3.6
[3]; pH 7, 0.5% solution
  b* value: 14.8
[3]; pH 9, 0.5% solution
  b* value: 40.2
